This note sets out measurements from ChEMBL document CHEMBL5316366, “Immunomodulatory Effects of New Phenanthrene Derivatives from Dendrobium crumenatum” (J Nat Prod, 2023).

Active and inactive are the calls of the source. The calls are words filed in the database; no cut-off is given here.

In data set [1] the test system is PBMC. Description: Immunomodulatory activity in PMA/ionomycin-induced human PBMC assessed as reduction in frequency of IL-2 expressing CD3+ T cells at 1 to 20 uM incubated for 4 hrs by flow cytometry. Type of data set: functional, cell-based. The following applies: dose 1-20 µM. In general terms: In flow cytometry, cells or beads pass a laser one at a time.
For data set [2], the system named is PBMC. Description: Cytotoxicity against human PBMC assessed as early apoptotic cells at 1 to 20 uM incubated for 4 hrs by Annexin V-FITC/7-AAD staining based flow cytometric analysis. The following applies: dose 1-20 µM. Type of data set: toxicity, cell-based.
The test system of data set [3] is PBMC. Description: Inhibition of Ca2+ influx in human PBMC derived from multiple sclerosis patient assessed as reduction in Ca2+ influx rate in CD8+ T cells at 10 uM incubated for 4 hrs by Fluo-4 AM staining based flow cytometry method. Type of data set: functional, cell-based.
Data set [4] deals with PBMC. Description: Immunomodulatory activity in human PBMC derived from multiple sclerosis patient assessed as reduction in IFN-gamma expressing CD3+ T cells at 10 uM incubated for 4 hrs by flow cytometry. The class given is functional, cell-based.
Data set [5] relates to PBMC. As to the kind of experiment: Cytotoxicity against human PBMC assessed as late apoptotic cells at 1 to 20 uM incubated for 4 hrs by Annexin V-FITC/7-AAD staining based flow cytometric analysis. Type of data set: toxicity, cell-based. Particulars: dose 1-20 µM.
For data set [6], the system named is PBMC. Description: Immunomodulatory activity in human PBMC derived from multiple sclerosis patient assessed as reduction in TNF-alpha expressing CD3+ T cells at 10 uM incubated for 4 hrs by flow cytometry. The class given is functional, cell-based.
The subject of data set [7] is PBMC. As to the kind of experiment: Inhibition of Ca2+ influx in human PBMC derived from multiple sclerosis patient assessed as reduction in Ca2+ influx rate in CD4+ T cells at 10 uM incubated for 4 hrs by Fluo-4 AM staining based flow cytometry method. The class given is functional, cell-based.
The subject of data set [8] is PBMC. Description: Immunomodulatory activity in human PBMC derived from multiple sclerosis patient assessed as reduction in IL-2 expressing CD3+ T cells at 10 uM incubated for 4 hrs by flow cytometry. The class given is functional, cell-based.
Data set [9] has as its system PBMC. Description: Immunomodulatory activity in PMA/ionomycin-induced human PBMC derived from multiple sclerosis patient assessed as reduction in frequency of reactive ICOS+ CD4+ T cells by CyTOF assay. Type of data set: functional, cell-based.
In data set [10] the test system is PBMC. Description: Immunomodulatory activity in PMA/ionomycin-induced human PBMC assessed as reduction in frequency of TNF-alpha expressing CD14+ inflammatory monocytes at 1 to 20 uM incubated for 4 hrs by flow cytomtery. Type of data set: functional, cell-based. Particulars: dose 1-20 µM.
Data set [11] has as its system PBMC. Description: Immunomodulatory activity in PMA/ionomycin-induced human PBMC derived from multiple sclerosis patient assessed as decrease in frequency of CD161+ CD3+T-bet+CD4-CD8-CD14- double negative T cells by CyTOF assay. Type of data set: functional, cell-based.
Data set [12] deals with PBMC. Description: Immunomodulatory activity in PMA/ionomycin-induced human PBMC assessed as reduction in frequency of IFN-gamma expressing CD3+ activated T cells at 1 to 20 uM incubated for 4 hrs by flow cytometry. The class given is functional, cell-based. The following applies: dose 1-20 µM.
Data set [13] relates to PBMC. Description: Immunomodulatory activity in PMA/ionomycin-induced human PBMC derived from multiple sclerosis patient assessed as increase in frequency of CTLA4+CRTH2+ CD8+ T cells by CyTOF assay. Type of data set: functional, cell-based.
Data set [14] concerns PBMC. Description: Immunomodulatory activity in multiple sclerosis patient derived PBMC derived from multiple sclerosis patient assessed as reduction in frequency of reactive ICOS+ CD4+ T cells by CyTOF assay. Type of data set: functional, cell-based. The following applies: Homo sapiens.
For data set [15], the system named is PBMC. Description: Immunomodulatory activity in multiple sclerosis patient derived PBMC derived from multiple sclerosis patient assessed as increase in frequency of CTLA4+CRTH2+ CD8+ T cells by CyTOF assay. Type of data set: functional, cell-based. The following applies: Homo sapiens.
In data set [16] the test system is PBMC. Description: Inhibition of Ca2+ influx in human PBMC derived from multiple sclerosis patient assessed as decrease in Ca2+ influx rate in CD8+ T cells at 1 uM incubated for 4 hrs by Fluo-4 AM staining based flow cytometry method. The class given is functional, cell-based.
For data set [17], the system named is PBMC. Description: Inhibition of Ca2+ influx in human PBMC derived from multiple sclerosis patient assessed as decrease in Ca2+ influx rate in CD4+ T cells at 1 uM incubated for 4 hrs by Fluo-4 AM staining based flow cytometry method. Type of data set: functional, cell-based.

For `COc1cc2ccc3c(OC)c(O)ccc3c2c(OC)c1O`, the result in the data set with PBMC [1] was Active.
With `COC1=CC(=O)c2c(ccc3c(OC)c(O)ccc23)C1=O`, the result with PBMC [1] was Active.
As for `COc1cc2c(c(OC)c1O)-c1ccc(O)c(O)c1CC2`, the Activity entry in the data set on PBMC [2] and with PBMC [5] was “Non-Toxic” in each case. Besides, the inhibition result with PBMC [3] and with PBMC [7] was “inactive” in each case. Further, the outcome with PBMC [4], in the data set on PBMC [1], in the data set on PBMC [6] and in the data set on PBMC [8] was Active.
As to `COC1=CC(=O)c2c(ccc3c(OC)c(O)ccc23)[C@@]12Oc1cc(OC)cc3ccc4c(c13)C2=CC(=O)C4=O`, the Activity entry in the data set on PBMC [2] and with PBMC [5] was “Non-Toxic” in each case. Besides, the result in the data set with PBMC [9], in the data set with PBMC [10], in the data set with PBMC [11], with PBMC [4], in the data set on PBMC [12] and with PBMC [1] was Active. In addition, the outcome in the data set on PBMC [13], in the data set with PBMC [14], in the data set on PBMC [15], with PBMC [6] and in the data set on PBMC [8] was Active. For the same molecule, the inhibition result in the data set with PBMC [3] and with PBMC [7] was “inactive” each time.
For `Cc1cccc(F)c1C(=O)Nc1cnc(-c2cc3c(cc2Cl)OC(F)(F)O3)cn1`, the inhibition result in the data set on PBMC [16] and in the data set on PBMC [17] was “Active” each time.
